25 molecules from ChEMBL document CHEMBL2434925, “Synthesis and antiviral activity of a novel class of (5-oxazolyl)phenyl amines” (Eur J Med Chem, 2013) can be followed below.

A short description of series [1]: Cytotoxicity against human Huh7.5 cells after 96 hrs by MTT assay. The series is classed as cell-based, Huh-7. (In general: Tetrazolium dyes change colour on reduction, which living cells bring about.)
In series [2] the test system is Hepatitis C virus. Briefly: Antiviral activity against HCV expressing pFL-J6/JFH/JC1 infected in human Huh7.5 cells assessed as inhibition of viral RNA synthesis after 96 hrs by one-step RT-PCR analysis. The series is classed as functional, organism-based, Hepacivirus hominis. The conditions noted are these: Huh-7, 96 h.
Series [3] is described as follows: Selectivity index, ratio of CC50 for human Huh7.5 cells to IC50 for HCV expressing pFL-J6/JFH/JC1. The series is classed as functional, Huh-7.
The nature of series [4]: Cytotoxicity against african green monkey Vero cells after 96 hrs by MTT assay. The series is classed as cell-based. The conditions noted are these: chlorocebus sabaeus.
The subject of series [5] is Coxsackievirus B3. Description: Antiviral activity against Coxsackie B3 virus Nancy in african green monkey Vero cells assessed as inhibition virus-induced cytopathic effect after 48 hrs. The series is classed as functional, organism-based. To be noted: Enterovirus B.
Series [6] is described as follows: Selectivity index, ratio of CC50 for african green monkey Vero cells to IC50 for Coxsackie B3 virus Nancy. The series is classed as functional.
The test system of series [7] is Coxsackievirus B6. Description: Antiviral activity against Coxsackie B6 virus Schmitt in african green monkey Vero cells assessed as inhibition virus-induced cytopathic effect after 48 hrs. The series is classed as functional, organism-based. To be noted: Enterovirus B. For orientation: Protection from cytopathic effect is a common read-out in antiviral testing.
Series [8] in a line: Selectivity index, ratio of CC50 for african green monkey Vero cells to IC50 for Coxsackie B3 virus Schmitt. The series is classed as functional.

The structures appear in SMILES notation. Bounds are passed on as bounds.

As for `COc1cc(NCc2cc3ccccc3s2)ccc1-c1cnco1`, the CC50 – broadly, the concentration that lowers cell viability or growth by half – at 96 h in series [1] was 29 µM; in series [4], 7.36 µM. In addition, the IC50 – broadly, the concentration needed to halve the response being measured – turned out to be 0.5 µM in series [2], 1.39 µM in series [5] and 1.07 µM in series [7]. Also, the “Ratio CC50/IC50” value is recorded as 57.9 in series [3], 5.3 in series [6] and 6.9 in series [8].
`NC(=O)c1ncn([C@@H]2O[C@H](CO)[C@@H](O)[C@H]2O)n1` [RIBAVIRIN]: in series [4], the CC50 at 96 h was 8190 µM. Further, the values for the IC50 in series [5] and in series [7] were 1580 µM and 910 µM, respectively. Besides, the “Ratio CC50/IC50” value in series [6] worked out at 5.2.
In the case of `COc1cc(NCc2cc(OC)c(OC)c(OC)c2)ccc1-c1cnco1`, the CC50 at 96 h in series [1] came to 36.6 µM; in series [4] it was 41.6 µM. The IC50 in series [2] is above 3.71 µM; in series [5], 11.6 µM; in series [7], 11.6 µM. In addition, the “Ratio CC50/IC50” value in series [3] is given as below 9.9; in series [6], 3.6; in series [8], 3.6.
Consider `COc1cc(NCc2ccncc2)ccc1-c1cnco1`, for which the results for the CC50 at 96 h in series [1] and in series [4] were 72.2 µM and 342 µM, respectively. The IC50 in series [2] was determined as 5.71 µM; in series [5], 26.3 µM; in series [7], 15.2 µM. For the same molecule, the “Ratio CC50/IC50” value in series [3] came out at 12.7; in series [6], 13; in series [8], 22.5.
Turning to `COc1cc(NC/C=C/c2ccccc2)ccc1-c1cnco1`, the CC50 at 96 h in series [1] is above 100 µM; in series [4], 72.5 µM. For the same molecule, the IC50 in series [2] turned out to be 2.38 µM; in series [5], 3.52 µM; in series [7], 4.67 µM. Also, the “Ratio CC50/IC50” value in series [3] is reported as above 42; in series [6], 20.6; in series [8], 15.5.
As to `COc1cc(NCc2ccc(OC)c(OC)c2OC)ccc1-c1cnco1`, the CC50 at 96 h in series [1] amounted to 32 µM; in series [4], 28.8 µM. Also, the IC50 is 0.66 µM in series [2], 0.73 µM in series [5] and 1.7 µM in series [7]. The “Ratio CC50/IC50” value turned out to be 48.4 in series [3], 39.5 in series [6] and 17 in series [8].
For `COc1cc(/N=C/c2cccs2)ccc1-c1cnco1`, the CC50 at 96 h was above 100 µM in series [1] and 406 µM in series [4]. The values for the half-inhibitory concentration (IC50) in series [2], in series [5] and in series [7] were 5.72 µM, 101 µM and 45.1 µM, respectively. Moreover, the “Ratio CC50/IC50” value was above 17.5 in series [3], 4 in series [6] and 9 in series [8].
As for `COc1cc(/N=C/c2ccc(F)cc2)ccc1-c1cnco1`, the CC50 at 96 h in series [1] is above 100 µM; in series [4], 324 µM. Moreover, the IC50 in series [2] worked out at 1.18 µM; in series [5], 43.3 µM; in series [7], 58.2 µM. Further, the “Ratio CC50/IC50” value was above 84.8 in series [3], 7.5 in series [6] and 5.6 in series [8].
`COc1ccccc1/C=C/CNc1ccc(-c2cnco2)c(OC)c1`: the CC50 at 96 h in series [1] was found to be 29.2 µM; in series [4], 12.7 µM. The IC50 in series [2] turned out to be 2.3 µM; in series [5], 3.15 µM; in series [7], 7.34 µM. Further, the “Ratio CC50/IC50” value came to 12.7 in series [3], 4 in series [6] and 1.7 in series [8].
In the case of `CCc1ccc(CNc2ccc(-c3cnco3)c(OC)c2)s1`, the CC50 at 96 h in series [1] was 39.1 µM; in series [4], 13.6 µM. Further, the figures for the IC50 in series [2], in series [5] and in series [7] were 1.98 µM, 2 µM and 4.55 µM, respectively. The “Ratio CC50/IC50” value in series [3] was found to be 19.8; in series [6], 6.8; in series [8] it was 3.
Turning to `COc1cc(NCc2c[nH]c3ccccc23)ccc1-c1cnco1`, the CC50 at 96 h in series [1] came out at 56.1 µM; in series [4] it was 48.3 µM. Also, the figures for the IC50 in series [2], in series [5] and in series [7] were 1.62 µM, 9.95 µM and 23.2 µM, respectively. Besides, the “Ratio CC50/IC50” value in series [3] worked out at 34.6; in series [6], 4.9; in series [8] it was 2.1.
Turning to `COc1ccc(-c2cnco2)cc1NCc1ccc(C)s1`, the CC50 at 96 h in series [1] turned out to be 52.9 µM; in series [4], 42.7 µM. Besides, the IC50 in series [2] was 2.42 µM; in series [5], 8.22 µM; in series [7], 12.8 µM. The results for the “Ratio CC50/IC50” value in series [3], in series [6] and in series [8] were 21.9, 5.2 and 3.4, respectively.
As for `COc1cc(/N=C/c2ccc([N+](=O)[O-])o2)ccc1-c1cnco1`, the CC50 at 96 h is 20.5 µM in series [1] and 13.7 µM in series [4]. For the same molecule, the IC50 was 1.24 µM in series [2], above 7.88 µM in series [5] and 4.88 µM in series [7]. For the same molecule, the “Ratio CC50/IC50” value is on record as 16.5 in series [3] and 2.8 in series [8].
In the case of `COc1cc(NCc2ccsc2)ccc1-c1cnco1`, the CC50 at 96 h in series [1] worked out at 63.1 µM; in series [4] it was 181 µM. The IC50 came out at 1.25 µM in series [2], 3.66 µM in series [5] and 4.65 µM in series [7]. The “Ratio CC50/IC50” value in series [3] is 50.5; in series [6], 49.4; in series [8] it was 38.9.
Turning to `COc1cc(/N=C/c2ccncc2)ccc1-c1cnco1`, the CC50 at 96 h in series [1] was above 100 µM; in series [4], 239 µM. Also, the IC50 in series [2] was found to be 1.61 µM; in series [5] it was 34.9 µM; in series [7], 15.3 µM. Further, the “Ratio CC50/IC50” value in series [3] is recorded as above 62.1; in series [6], 6.8; in series [8] it was 15.6.
As for `COc1cc(NCc2cccc(C)n2)ccc1-c1cnco1`, the figures for the CC50 at 96 h in series [1] and in series [4] were 62.7 µM and 75.2 µM, respectively. For the same molecule, the figures for the 50% inhibitory concentration (IC50) in series [2], in series [5] and in series [7] were 2.4 µM, 14.5 µM and 6.36 µM, respectively. For the same molecule, the “Ratio CC50/IC50” value in series [3] is on record as 26.1; in series [6], 5.2; in series [8], 11.8.
As to `COc1cc(/N=C/C=C/c2ccccc2)ccc1-c1cnco1`, the figures for the CC50 at 96 h in series [1] and in series [4] were above 100 µM and 105 µM, respectively. For the same molecule, the IC50 in series [2] worked out at 6.99 µM; in series [5], 15.1 µM; in series [7], 18.9 µM. Also, the results for the “Ratio CC50/IC50” value in series [3], in series [6] and in series [8] were above 14.3, 7 and 5.6, respectively.
On to `COc1cc(NCc2ccc(C)o2)ccc1-c1cnco1`, for which the CC50 at 96 h was 63.4 µM in series [1] and 45.1 µM in series [4]. Besides, the IC50 is 1.01 µM in series [2], 5.01 µM in series [5] and 6.78 µM in series [7]. Besides, the “Ratio CC50/IC50” value was 62.8 in series [3], 9 in series [6] and 6.7 in series [8].
Regarding `COc1ccc(CNc2ccc(-c3cnco3)c(OC)c2)cn1`, the CC50 at 96 h in series [1] turned out to be 56.8 µM; in series [4] it was 371 µM. Moreover, the half-inhibitory concentration (IC50) came out at 3.25 µM in series [2], 6.03 µM in series [5] and 10.1 µM in series [7]. Further, the “Ratio CC50/IC50” value in series [3] came out at 17.5; in series [6], 61.5; in series [8], 36.7.
As to `COc1cc(NCc2ccc(C(=O)O)s2)ccc1-c1cnco1`, the CC50 at 96 h in series [1] is above 100 µM; in series [4], 350 µM. The IC50 in series [2] was found to be 22.4 µM; in series [5], 67.3 µM; in series [7] it was 56 µM. Moreover, the “Ratio CC50/IC50” value in series [3] is recorded as above 4.5; in series [6] it was 5.2; in series [8], 6.2.
For the molecule `COc1c(C)c2c(c(O)c1C/C=C(\C)CCC(=O)O)C(=O)OC2` [MYCOPHENOLIC ACID], the CC50 at 96 h is above 100 µM in series [1] and 624 µM in series [4]. The concentration for half-maximal inhibition (IC50) came out at 4.16 µM in series [2], 10.2 µM in series [5] and 69.4 µM in series [7]. The entries for the “Ratio CC50/IC50” value in series [3], in series [6] and in series [8] were above 24, 61.5 and 9, respectively.
Take `COc1cc(NCc2csc3ccccc23)ccc1-c1cnco1`: the CC50 at 96 h in series [1] is 23.6 µM; in series [4], 12.7 µM. Moreover, the IC50 is above 1.24 µM in series [2], 1.87 µM in series [5] and 2.43 µM in series [7]. Besides, the results for the “Ratio CC50/IC50” value in series [3], in series [6] and in series [8] were below 19.1, 6.8 and 5.2, respectively.
In the case of `COc1cc(NCc2ccc(Br)s2)ccc1-c1cnco1`, the results for the CC50 at 96 h in series [1] and in series [4] were 39.4 µM and 47.3 µM, respectively. Besides, the figures for the IC50 in series [2], in series [5] and in series [7] were above 3.75 µM, 5.14 µM and 1.2 µM, respectively. Besides, the “Ratio CC50/IC50” value in series [3] was below 10.5; in series [6], 9.2; in series [8], 39.4.
For `COc1ccc(CNc2ccc(-c3cnco3)c(OC)c2)cc1`, the figures for the CC50 at 96 h in series [1] and in series [4] were 41.3 µM and 23.9 µM, respectively. Further, the IC50 in series [2] amounted to 1.4 µM; in series [5], 0.87 µM; in series [7], 3.42 µM. The “Ratio CC50/IC50” value in series [3] was 29.5; in series [6] it was 27.5; in series [8], 7.
Turning to `COc1ccc2[nH]cc(CNc3ccc(-c4cnco4)c(OC)c3)c2c1`, the CC50 at 96 h in series [1] was above 100 µM; in series [4], 36.7 µM. Moreover, the IC50 is 0.82 µM in series [2], above 7.07 µM in series [5] and above 7.07 µM in series [7]. The “Ratio CC50/IC50” value in series [3] is recorded as above 122.
